pIC50: −log10 of the molar value. Read-outs that look alike come from different tables or passages of the source.
What was measured:
[1] = tested on: spontaneous hypertensive rats (SHR); assay: Antihypertensive effect in spontaneous hypertensive rats (SHR); format: in vivo; settings: for change in vivo at 5 mg/kg / ED10: Rattus norvegicus, ip; for change in vivo at 5 mg/kg: 1 h
Experimental: Antihypertensive effect in spontaneous hypertensive rats (SHR)
The femoral artery of male SHR is cannulated in anaestesia for blood pressure recordings. After a stabilization period of 11/2 h after discontinuation of the anaesthesia initial blood pressure curves are recorded and the systolic (SAP)/diastolic (DAP) pressure determined (-20, -10, 0, min. p.i.) Test substance is injected i.p. and the pressure curve recorded for one hour. The change in SAP/DAP is calculated in percent at mean initial values at different times (10, 20, 30, 40, 50 and 60 minutes after injection). At least two SHR are used per dose level. The maximum change is used for estimation of the drug effect.

5-HT pressor responses = assay: Antagonism to 5-HT pressor responses in pithed rats; format: in vivo; settings: for change in vivo at 0.02 mg/kg / ED50: Rattus norvegicus, iv
Experimental: (§1) The rat is anaesthetized with ether, tracheotomized, artificial respired and pithed. The knitting-needle is introduced through the right orbita into the cranial cavity and passed through foramen magnum into the spinal canal as far as possible. The spinal cord is destroyed by turning the needle. After vagotomi both carotides are ligated and a catheter placed in the right one for pressure recording. The rat is adrenalectomized. […] The initial and post medication mean pressor effect is calculated, and the mean pressor effect is calculated as % of the initial value. Two to five preparations are employed for each dose level. The ED50 is determined.

5-HT2 receptors = molecular target: T1, 5-HT2 receptors (Rattus norvegicus, UniProt P14842); assay: 3H-spiroperidol binding to 5-HT2 receptors; settings: rat whole cortex, 0.5 nM 3H-spiroperidol, 0.3 μM sulpiride; read-out: 3H-SPI binding 5-HT2 IC50
T1 construct: Rat whole cortex was homogenized by an Ultra Turrax homogenizer; from tissue; host or cells: rat whole cerebral cortex, crude washed membranes
T1 sequence (P14842 whole entry): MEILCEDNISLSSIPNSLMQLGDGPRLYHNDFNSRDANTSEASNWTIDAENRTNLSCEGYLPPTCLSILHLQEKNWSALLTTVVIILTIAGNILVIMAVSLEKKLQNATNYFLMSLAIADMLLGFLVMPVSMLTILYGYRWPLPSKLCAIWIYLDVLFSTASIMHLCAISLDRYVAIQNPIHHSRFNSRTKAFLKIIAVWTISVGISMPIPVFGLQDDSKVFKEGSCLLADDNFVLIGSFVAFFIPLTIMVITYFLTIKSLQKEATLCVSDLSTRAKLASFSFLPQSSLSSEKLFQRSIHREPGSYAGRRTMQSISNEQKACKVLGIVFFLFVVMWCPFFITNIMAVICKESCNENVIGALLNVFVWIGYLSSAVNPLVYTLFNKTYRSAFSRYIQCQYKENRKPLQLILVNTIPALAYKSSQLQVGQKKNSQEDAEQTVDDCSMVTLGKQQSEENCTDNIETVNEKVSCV
Experimental: ^3 H-spiroperidol binding to 5-HT2 receptors.
Rat whole cortex was homogenized by an Ultra Turrax homogenizer in 100 vol. of 50 mM Tris buffer pH 7.7. The homogenate was centrifuged at 20,000 g for 10 minutes at 4° C. The pellet was rehomogenized in another volume of buffer and centrifuged as mentioned above. The final pellet was rehomogenized in 50 mM Tris buffer pH 7.7 containing 120 mM NaCl, 5 mM KCl, 2 mM CaCl2 and 1 mM MgCl2 (ion mix) in a volume corresponding to 12.5 mg original tissue per ml.
Test drugs were dissolved in water; ^3 H-spiroperidol (NEN, 28-30 Ci/mmol) was diluted in 3 μM sulpiride, and 800 μl membrane suspension were added. Final concentration of ligand and sulpiride were 0.5 nM and 0.3 μM, respectively. The samples were incubated at 37° C. for 10 min. The samples were then filtered under vacuum through Whatman GF/B glass-fiber filters. The tubes were then rinsed with 5 ml incubation buffer, which was poured on the filters. The filters were finally washed twice with 5 ml buffer and placed in counting vials. After addition of 5 ml scintillation fluid (Lumagel) radioactivity was estimated by liquid scintillation counting. Non-specific binding was obtained by adding Mianserin (1 μM) to separate samples. Each drug was tested at least twice at 5 concentrations in triplicate. IC50-values were determined from log concentration-response curves.--The presence of sulpiride excluded binding to dopamine D-2 receptors.

[2] = tested on: 1-5-HTP-induced head shakes; assay: 1-5-HTP-induced head shakes; format: in vivo; settings: Rattus norvegicus, sc, rats, 1-5-HTP 75 mg/kg i.p. after citalopram; read-out: 1-5-HTP-antg. ED50
Experimental: The rats were pretreated subcutaneously with test compound or saline simultaneously with or 90 min before injection of citalopram (10 mg/kg s.c.).
Each group consisted of 4-12 rats.

[3] = tested on: methylphenidate induced stereotypies; assay: Methylphenidate Antagonism; format: in vivo, mice; settings: for ED50: Mus musculus, ip, read-out: MePh antg. ED50, i.p., mice, 2 hours before methylphenidate 60 mg/kg s.c.
Experimental: The experiments were made as described by Pedersen and Christensen (1972) Acta Pharmacol. et Toxicol. 31, 488-496.--Briefly, test compounds or saline were injected i.p. 2 hours before methylphenidate, 60 mg/kg s.c. 3 pairs of mice were used for each dose level. After methylphenidate injection the mice were placed in observation cages for one hour. The cages were placed on corrugated paper, the corrugation facing upwards.

[4] = tested on: phenylephrine pressor responses; assay: Antagonism to phenylephrine pressor responses in pithed rats; format: in vivo; settings: for change in vivo at […] / ED50: Rattus norvegicus, iv; for change in vivo at […]: read-out: Effects on pressor response of Phenylephrine, % eff. of […], pithed rats, […], jugular vein, read-out: Effects on pressor response of Phenylephrine, % eff. of 0.31 mg/kg; for ED50: read-out: Effects on pressor response of Phenylephrine, ED50
Experimental: as §1

[5] = read-out: Antihypertensive eff. SHR, max eff. in % of 5 mg/kg ip, DAP, 5 mg/kg ip, diastolic pressure (DAP), max change within one hour
[6] = read-out: Antihypertensive eff. SHR, max eff. in % of 5 mg/kg ip, SAP, 5 mg/kg ip, systolic pressure (SAP), max change within one hour
[7] = read-out: Effects on pressor response of 5-HT, % eff. of 0.02 mg/kg, pithed rats, 0.02 mg/kg, jugular vein
[8] = 5 mg/kg ip, diastolic pressure (DAP), max change within one hour
[9] = 5 mg/kg ip, systolic pressure (SAP), max change within one hour
[10] = pithed rats, 0.02 mg/kg, jugular vein
[11] = 5 mg/kg ip, diastolic pressure (DAP), max change within one hour, read-out: Antihypertensive eff. SHR, max eff. in % of 5 mg/kg ip, DAP
[12] = 5 mg/kg ip, systolic pressure (SAP), max change within one hour, read-out: Antihypertensive eff. SHR, max eff. in % of 5 mg/kg ip, SAP
[13] = pithed rats, 0.02 mg/kg, jugular vein, read-out: Effects on pressor response of 5-HT, % eff. of 0.02 mg/kg

SMILES	change in vivo at 5 mg/kg [1, 5] [%]	change in vivo at 5 mg/kg [1, 6] [%]	change in vivo at 0.02 mg/kg (5-HT pressor responses; [7]) [%]	pIC50 (5-HT2 receptors)	ED50 [2] [µmol/kg]	ED50 [3] [µmol/kg]	change in vivo at […] [4] [%]	change in vivo at 5 mg/kg [1, 11] [%]	change in vivo at 5 mg/kg [1, 12] [%]	change in vivo at 0.02 mg/kg (5-HT pressor responses; [13]) [%]	other results
O=C1NCCN1CCN1CCN([C@@H]2C[C@@H](c3ccc(F)cc3)c3ccc(C(F)(F)F)cc32)CC1 (relative stereo) [compound 6]	-14	-10	-52	8.00	0.29	1.8					
O=c1[nH]c2ccccc2c(=O)n1CCN1CCN([C@H]2C[C@H](c3ccc(F)cc3)c3ccccc32)CC1 (relative stereo) [compound 19]						> 70					Effects on pressor response of Phenylephrine, % eff. of […] ([4]; pithed rats, jugular vein): -42%; Antihypertensive eff. SHR, max eff. in % of 5 mg/kg ip, DAP [1, 8]: -27%; Antihypertensive eff. SHR, max eff. in % of 5 mg/kg ip, SAP [1, 9]: -22%; Effects on pressor response of 5-HT, % eff. of 0.02 mg/kg (5-HT pressor responses; [10]): -35%
O=C1CCCN1CCN1CCN([C@@H]2C[C@@H](c3ccc(F)cc3)c3ccc(F)cc32)CC1 (relative stereo) [compound 18]			-67	7.92	0.76	18					Antihypertensive eff. SHR, max eff. in % of 5 mg/kg ip, SAP/DAP (inactive) ([1]; 5 mg/kg ip, SAP/DAP): I
Fc1ccc([C@@H]2C[C@@H](N3CCN(CCN4CCNC4=S)CC3)c3cc(F)ccc32)cc1 (single isomer, unassigned) [+24]	-40	-32	-88	8.60	0.03	17					
O=c1[nH]c2ccccc2n1CCN1CCN([C@@H]2C[C@@H](c3ccc(F)cc3)c3ccc(F)cc32)CC1 (relative stereo) [compound 16]	-11	-15	-52	8.01	0.28	> 72					
CC(C)N1CCN(CCN2CCN([C@@H]3C[C@@H](c4ccc(F)cc4)c4ccc(F)cc43)CC2)C1=O (relative stereo) [compound 13]	-5	-5	-79	8.28	0.11	> 73					peripheral or central action ([1]; in words): marked central effects
O=C1OCCN1CCN1CCN([C@@H]2C[C@@H](c3ccc(F)cc3)c3ccc(F)cc32)CC1 (relative stereo) [compound 8]					1.3	18	-19	-26	-20	-40	ED50 ([4]; pithed rats, jugular vein): 4.35 µmol/kg; Phenylephr. antg./5-HT antg. (ratio) ([4]; pithed rats, ratio of phenylephrine ED50 to 5-HT ED50): 52; ED50 (5-HT pressor responses; pithed rats, jugular vein, read-out: Effects on pressor response of 5-HT, ED50): 0.084 µmol/kg
O=C(c1ccc(F)cc1)C1CCN(CCn2c(=O)[nH]c3ccccc3c2=O)CC1 [Ketanserin, reference compound]	-24	-32	-46		0.58	101					ED50 [4]: 3.6 µmol/kg; ED10 ([1]; read-out: Antihypertensive eff. SHR, ED10 DAP): 1.2 µmol/kg; ED10 ([1]; read-out: Antihypertensive eff. SHR, ED10 SAP): 1.6 µmol/kg; ED50 (5-HT pressor responses; read-out: Effects on pressor response of 5-HT, ED50, pithed rats, jugular vein): 0.033 µmol/kg
O=C1OCCN1CCN1CCN([C@@H]2C[C@@H](c3ccc(F)cc3)c3ccccc32)CC1 (relative stereo) [compound 7]					2.7	> 83	-18	-19	-15	-4	
CC(C)c1ccc2c(c1)[C@H](N1CCN(CCN3CCNC3=O)CC1)C[C@H]2c1ccc(F)cc1 (relative stereo) [compound 5]					1.7	24	-33	-10	-9	-6	
O=C1NCCN1CCN1CCN([C@@H]2C[C@@H](c3ccc(F)cc3)c3ccc(Cl)cc32)CC1 (single isomer, unassigned) [-20]					< 8.4						Effects on pressor response of Phenylephrine, % eff. of […] ([4]; pithed rats, jugular vein): +21%; Antihypertensive eff. SHR, max eff. in % of 5 mg/kg ip, DAP [1, 8]: -16%; Antihypertensive eff. SHR, max eff. in % of 5 mg/kg ip, SAP [1, 9]: -7%; Effects on pressor response of 5-HT, % eff. of 0.02 mg/kg (5-HT pressor responses; [10]): -11%; MePh antg. ED50 ([3]; i.p., mice, 2 hours before methylphenidate 60 mg/kg s.c.): > 67 µmol/kg
Fc1ccc([C@@H]2C[C@@H](N3CCN(CCN4CCCNC4=S)CC3)c3cc(F)ccc32)cc1 (relative stereo) [compound 26]	-19	-13	-67	8.11	0.11						
O=C1OCCN1CCCN1CCN([C@@H]2C[C@@H](c3ccc(F)cc3)c3ccc(F)cc32)CC1 (relative stereo) [compound 15]					0.31	39	-7	-18	-12	-31	

— patent US4684650A, “Antihypertensive fluorophenylindanyl imidazolidinoneethylpiperazines” (priority 1984, dated 1987)
